Measurements as given in US20230277554A1, “COMPOSITION CONTAINING NICKEL-SUPEROXIDE DISMUTASE AND THE LIKE USEFUL FOR HAIRCARE” (priority 2020, published 2023).

Test system: Cutibacterium acnes
Experiment: Cutibacterium acnes growth inhibition
Type: cell-based
Method: Cutibacterium acnes is a troublesome anaerobic pathogen. TUN-828® has the function of forming oxygen internally, so we tried to explore whether such a mechanism can inhibit the growth of Cutibacterium acnes and thereby promote the formation of Staphylococcus epidermidis thus form a micro-ecological environment beneficial to the scalp. […] In 24 hours, TUN-828® can inhibit more than 93% Cutibacterium acnes and more than 99% in 48 hr.

In the case of “Nickel Bis (Hydroxy Diphenyl MethyIPyrrolidino Methy) Pyridinediy1 t-Butylisocyano Perchlorate [TUN-828®]”, the “inhibition of Cutibacterium acnes” value (24 hours) is reported as “more than 93%” and the “inhibition of Cutibacterium acnes” value (48 hr) is reported as “more than 99%”.
